Assay results published in patent publication US9532984B2, “Therapeutic combination for cancer treatment” (The Translational Genomics Research Institute, priority 2011, dated 2017).

How the values were obtained:
[1] = test system: SW48 KRas Kras G12D cells; test: Cancer cell growth inhibition (cell proliferation), SW48 Kras G12D; type: cell-based; conditions: Homo sapiens
Procedure: (§1) The experiments involved a broad testing of multiple concentrations of metformin, phenformin and pioglitazone against fixed concentrations of the autophagy inhibitors. […] Similar tests were carried out in mouse models.

[2] = test system: SW48 KRas Kras G12V cells; test: Cancer cell growth inhibition (cell proliferation), SW48 Kras G12V; type: cell-based; conditions: Homo sapiens
Procedure: as §1

SW48 KRas Kras WT cells = test: Cancer cell growth inhibition (cell proliferation), SW48 Kras WT; type: cell-based; conditions: Homo sapiens
Procedure: as §1

[3] = test system: BxPC-3 human pancreatic tumor xenograft
Procedure: BxPC-3 is a human pancreatic cancer cells obtained from the American Type Culture Collection and maintained as recommended. Female mice were inoculated subcutaneously in the right flank with 0.1 ml of a 50% RPMI/50% Matrigel™ (BD Biosciences, Bedford, Mass.) mixture containing a suspension of BxPC-3 human pancreatic tumor cells (approximately 5×10^6 cells/mouse). RPMI, a bicarbonate buffering system, and Matrigel™, a gelatinous protein mixture, support growth of many types of cultured cells including human normal and neoplastic leukocytes.
When tumors reached approximately 135 mg, mice were randomized into treatment groups. Body weights were recorded when the mice were randomized into groups and were weighted twice per week (on Study Days 3 and 7 for each cycle) thereafter in conjunction with tumor measurements. Group 1 mice were treated with vehicle control containing 5% DMA, 10% propylene glycol, 20% PEG 400, and 65% sterile water. Group 2 mice were treated with metformin only. Group 3 mice were treated with autophagy inhibitor in combination with metformin. Treatment began on the day of randomization. Metformin was delivered orally ad libitum in water. The autophagy inhibitor was delivered daily for 12 days in a vehicle of 5% DMA, 10% propylene glycol, 20% PEG 400, and 65% sterile water.

Row | IC50 ([1]; no autophagy inhibitor) [µM] | IC50 ([1]; with fixed Mefloquine 1 μM) [µM] | IC50 ([1]; with fixed Quinicrine 1 μM) [µM] | IC50 ([1]; with fixed Quinicrine 3 μM) [µM] | IC50 ([2]; no autophagy inhibitor) [µM] | IC50 ([2]; with fixed Mefloquine 1 μM) [µM] | IC50 ([2]; with fixed Quinicrine 1 μM) [µM] | IC50 ([2]; with fixed Quinicrine 3 μM) [µM] | IC50 (SW48 KRas Kras WT cells; no autophagy inhibitor) [µM] | IC50 (SW48 KRas Kras WT cells; with fixed Mefloquine 1 μM) [µM] | IC50 (SW48 KRas Kras WT cells; with fixed Quinicrine 1 μM) [µM] | IC50 (SW48 KRas Kras WT cells; with fixed Quinicrine 3 μM) [µM] | IC50 ([1]; with fixed Mefloquine 3 μM) [µM] | IC50 ([2]; with fixed Mefloquine 3 μM) [µM] | IC50 (SW48 KRas Kras WT cells; with fixed Mefloquine 3 μM) [µM] | Structure (SMILES) | also measured
1 | 10.7 | 13 | 23.4 | 33.1 | 16.2 | 1.8 | 6.5 | 4.3 | 7.2 | 17.2 | 11 | 15.8 |  |  |  | [H]/N=C(/N)N/C(=N/[H])NCCc1ccccc1 [Phenformin, phenformin] | IC50 ([1]; with fixed Chloroquine 1 μM): 19.5 µM; IC50 ([1]; with fixed Chloroquine 3 μM): 16.2 µM; IC50 ([2]; with fixed Chloroquine 1 μM): 5.8 µM; IC50 ([2]; with fixed Chloroquine 3 μM): 4.5 µM; IC50 (SW48 KRas Kras WT cells; with fixed Chloroquine 1 μM): 23.4 µM; IC50 (SW48 KRas Kras WT cells; with fixed Chloroquine 3 μM): 11.7 µM
2 | 1300 | < 20 | 1100 | > 10000 | 430 | < 20 | < 20 | 500 | 1000 | < 20 | 1100 | 4800 | 900 | 40 | 600 | CN(C)C(=N)N=C(N)N [Metformin, metformin] | tumor growth ([3]; after day 18, FIG. 1): continued although at a lower rate than that in Group 1 control; tumor growth rate ([3]; day 8 to about day 18, compared among groups, FIG. 1): lowest tumor growth rate; tumor size regressed ([3]; within about one week, after day 18): ~20 % by weight; IC50 ([1]; with fixed Primaquine 1 μM): 100 µM; IC50 ([1]; with fixed Primaquine 3 μM): > 10000 µM; IC50 ([2]; with fixed Primaquine 1 μM): 80 µM; IC50 ([2]; with fixed Primaquine 3 μM): 320 µM; IC50 (SW48 KRas Kras WT cells; with fixed Primaquine 1 μM): 100 µM; IC50 (SW48 KRas Kras WT cells; with fixed Primaquine 3 μM): 2600 µM
3 | 183 |  |  |  | > 250 |  |  |  | 154 |  |  |  | 9.7 | 0.4 | 8.1 | CCc1ccc(CCOc2ccc(CC3SC(=O)NC3=O)cc2)nc1 (stereo not drawn) [Pioglitizone, pioglitazone] | 
